Assays:
Format in all cases: cell-based, human
PKC-δ = assay: Confirmation of LPS results by immunoblotting, MDA MB-231 cells; conditions: PVDF membranes
Description: (§1) The proteins affected by pentamer, as detected by LPS, were analyzed further by immunoblotting. Antibodies against the following proteins were used: Cdc2 (Tyr15), FKHR (Ser256), p53 (Ser37, Ser46 and Ser392), PKC-δ (Ser643), PKC-θ (Ser643/676), pRb (Ser795 and Ser807/811), SAPK/JNK (Thr183/Tyr185) and Stat 5 (Tyr694) (all antibodies were obtained from Cell Signaling).
(§2) Protein pellets from pentamer-treated MDA MB-231, MDA MB-468 and MCF-7 cells and corresponding DMSO-treated controls were lysed in PBS with 1% SDS and sonicated for 15 seconds at a power of five watts. Samples were then centrifuged at 10,000 rpm and supernatants transferred into clean tubes. Protein concentration was determined as descried above. Ten jig of each protein sample was separated by PAGE on 4-20% gradient gels (BioRad, Philadelphia, Pa.). Gels were either transferred to PVDF membranes (BioRad) or P-FILM membrane (stacks of 10 membranes) according to the manufacturer's instructions (20/20 Gene Systems). PVDF membranes were blocked for 1 hour in 0.5% casein solution (Vector Laboratories, Burlingame, Calif.), prior to incubation with primary antibodies. […] The membranes were incubated overnight at 4° C. in 1:500 dilutions of primary antibodies, washed three times in TBST for five minutes, incubated in HRP-conjugated secondary antibodies, washed again and incubated in ECL Plus Reagent (Amersham). Signals were visualized on BIOMAX MR film (Kodak, Rochester, N.Y.). Following incubation with primary antibodies, membranes were incubated in anti-GAPDH antibody (1:500 dilution; Chemicon, Temecula, Calif.). The presence of this protein was visualized with secondary antibody conjugated to alkaline phosphatase DuoLux substrate (Vector Laboratories).

PKC-θ = assay: as above; conditions: PVDF membranes
Description: as §1, §2

Stat5 = assay: as above; conditions: PVDF membranes
Description: as §1, §2

SAPK/JNK = assay: as above; conditions: PVDF membranes
Description: as §1, §2

184B5 cells = assay: Crystal violet cellular proliferation assay; conditions: 100 μg/mL
Description: The 184B5 line is an immortalized, non-tumorogenic cell line derived from primary cultures of HMECs immortalized with benzo(a)pyrene (provided by Dr. M. R. Stampfer) and was maintained in Clonetics mammary epithelial cells medium (MEGM).
One×10^3 cells per well were seeded in 96 well dishes (Coming Costar, Cambridge, Mass.). Primary cultures of HMECs, A1N4 and 184B5 cells were evaluated at two different cell densities (seeded at 1×10^3 and 2×10^3 per well). After 24 hours of cell attachment, cells in triplicate wells were treated with pentamer at a concentration of 100 μg/mL. The cells on the same plate were treated with corresponding controls: (i) media containing DMSO, and (ii) media with no additions.
Cells were treated for 1, 2, 3, 6, 8 and 10 days, but in some cases, the samples were collected at days 2, 3, 4, 7 and 10 post-treatment. Each treatment was conducted in triplicate. Samples were collected at each time point as follows: media was removed and 50 μL of crystal violet solution (0.1% of crystal violet in 0.1 M citric acid solution) was added to each well at room temperature and plates were incubated for 15 minutes, followed by washing with deionized water. […] The optical density (OD) of samples was read at 550 nm on an Ultramark Microplate Imagining System (BioRad, Philadelphia, Pa.). […] Statistical significance was determined using the t test analysis.

pRb [1] = assay: High resolution profiling (P-FILM) of pRb in MDA MB-231 cells; conditions: 100 μg/mL, 48 and 72 hours
Description: Both p53 and pRb contain multiple phosphorylation sites, and evaluating each site separately provides a more accurate indication of each protein's potential function. Therefore, a high resolution functional profiling of the proteins was performed using P-FILM technology (20/20 Gene Systems, Inc.).
The same protein samples as those used for PDVF membrane blotting were used. Ten μg of each protein sample of MDA MB-231 cells, and in some cases MDA MB-468 and MCF-7 cells, treated with 100 μg /mL of pentamer or DMSO-treated controls, were separated by PAGE on 4-20% gradient gels (BioRad). Proteins were transferred on a stack of ten membranes, according to manufacturer's instructions (20/20 Gene Systems, Inc.). The membranes were probed with antibodies recognizing total and phosphorylated p53 (p53Ser6, Ser9, Ser15, Ser20, Ser37, Ser46 and Ser392) at 1:1000 dilution as recommended by the manufacturer (Cell Signaling). The secondary antibody used in all cases was anti-rabbit polyclonal 1:2000 (Amersham). Signals were visualized on BIOMAX MR film (Kodak). The profiling of pRb was done using anti-phospho pRb (Ser780, Ser 795 and Ser 807/811) and anti-pRb polyclonal antibody (Cell Signaling) at a 1:1000 dilution. The secondary antibody used in all cases was anti-rabbit at 1:2000 dilution (Amersham). Image analysis was performed with Kodak 1D image analysis software. […]

pRb [2] = assay: Confirmation of LPS results by immunoblotting, MDA MB-231 cells
Description: as §1, §2
(§3) As a control, the PVDF membranes probed for Cdc2, FKHR, p53, and pRb were stripped according to manufacturer's instructions (Cell Signaling). After striping, membranes were washed four times for five minutes each in TBST buffer, blocked as described above, washed again and incubated in primary antibodies overnight at 4° C. The primary antibodies used were anti-total Cdc2 (1:1000 dilution, Cell Signaling), anti-total FKHR (1:1000 dilution, Cell Signaling), anti-endogenous p53 (1:1000, Cell Signaling) and anti-endogenous pRb (1:1000, Santa Cruz). The next day, membranes were washed and incubated in HRP conjugated secondary antibodies, washed again and incubated in ECL Plus Reagent (Amersham). Signals were detected as previously described. To test equality of loading, membranes were probed with anti-GAPDH antibody (1:500 dilution; Chemicon, Temecula, Calif.) as described above.

Cdc2 = assay: as above
Description: as §1, §2, §3

FKHR = assay: as above
Description: as §1, §2, §3

p53 = assay: as above
Description: as §1, §2, §3

[3] = LPS analysis and PVDF membrane experiments

`Oc1cc(O)c2c(c1)O[C@H](c1ccc(O)c(O)c1)[C@H](O)[C@H]2c1c(O)cc(O)c2c1O[C@H](c1ccc(O)c(O)c1)[C@H](O)[C@H]2c1c(O)cc(O)c2c1O[C@H](c1ccc(O)c(O)c1)[C@H](O)[C@H]2c1c(O)cc(O)c2c1O[C@H](c1ccc(O)c(O)c1)[C@H](O)[C@H]2c1c(O)cc(O)c2c1O[C@H](c1ccc(O)c(O)c1)[C@H](O)C2` [pentamer, pentameric procyanidin] was tested, and the “confirmation of LPS result on PKC-δ by immunoblotting” value (PKC-δ) was “not confirmed”, the “confirmation of LPS result on PKC-θ by immunoblotting” value (PKC-θ) was “not confirmed” and the “confirmation of LPS result on Stat5 by immunoblotting” value (Stat5) was “not confirmed”. For the same molecule, the “confirmation of LPS result on SAPK/JNK by immunoblotting” value (SAPK/JNK) was “not confirmed”, the “day post-treatment at which significant sensitivity to pentamer was exhibited” value (184B5 cells) was 10 days and the “growth inhibited, in comparison to DMSO-treated controls” value (184B5 cells) was 2.8 fold. The “phosphorylation of pRb on all tested residues (Ser780, Ser795 and Ser807/811)” value (pRb [1]) was “decrease”, the “protein expression of endogenous pRb” value (pRb [1]) was “decrease” and the “pRb, both total and phospho-specific sites” value (pRb [2]; PVDF membrane reprobed) was “affected”. For the same molecule, the “effect on phosphorylated form of pRb (Ser795 and Ser807/811)” value (pRb [2]; immunoblot, 48 and 72 hr) was “had an effect”, the “total protein expression of Cdc2” value (Cdc2; [3]) was “not affected” and the “effect on phosphorylated form of Cdc2 (Tyr15)” value (Cdc2; immunoblot, 48 and 72 hrs) was “had an effect”. For the same molecule, the “total protein expression of FKHR” value (FKHR; [3]) was “not affected”, the “effect on phosphorylated form of FKHR (Ser256)” value (FKHR; immunoblot, 48 and 72 hrs) was “had an effect” and the “total protein expression of p53” value (p53; [3]) was “not affected”. For the same molecule, the “effect on phosphorylated form of p53 (Ser37, Ser46 and Ser392)” value (p53; immunoblot, 72 hrs) was “had an effect”.

From patent US7371776B2, “Methods and compositions for treating cancer” (Mars, Incorporated, priority 2004, dated 2008)
